Reference: patent US11390631B1, “Benzodiazepine derivatives as RSV inhibitors” (priority 2015, dated 2022)

Experiments:
[1] = test system: Human RSV-A (“Long” strain); assay: RSV-A assay: inhibition of cytopathic effect in Hep-2 cells, ATPlite readout; type: cell-based, Human respiratory syncytial virus (HRSV); details: human respiratory syncytial virus, HEp-2, 120 h, read-out: Human RSV-A (“Long” strain) EC50
Summary of the method: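 Cytopathic-effect protection was read as ATP content (ATPlite luminescence) after a 5-day incubation. Setup: Hep-2 cells at 8,000 per well, RSV-A Long at MOI 0.1, 2-fold serial compound dilutions in duplicate. Cytotoxicity (CC50) was measured on an identical uninfected plate run in parallel.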

[2] = Cytotoxicity on parallel plate without virus, ATPlite readout; type: cell-based; details: human, Hep-2 cells (no virus), Hep-2 cells without virus, 5-day incubation
Summary of the method: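 Hep-2 cells, 8,000/well, received duplicate 2-fold compound dilutions with growth medium in place of virus. After 5 days, viability measured as ATP by ATPlite luminescence. CC50 reported in ranges: A>50 μM; B 10-50 μM; C<10 μM.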

[3] = test system: RSV-B, genotype B, strain 9320; assay: RSV-B assay: A549 cells infected with RSV-B, qPCR or ATPlite readout; type: cell-based, Human respiratory syncytial virus (HRSV); details: human respiratory syncytial virus, A549, read-out: Human RSV-B EC50
Description: Hep-2 cells, (originally derived from tumors grown in irradiated-cortisonised weanling rats that had been injected with epidermoid carcinoma tissue from a person's larynx, but later found to be indistinguishable from HeLa cells by PCR DNA analysis), were used for the culturing of genotype B, strain 9320. Flasks were inoculated with RSV-B and viral stocks were collected once cytopathic effect (CPE) was greater than […]. Viral stocks in 25% o sucrose media were snap frozen using liquid nitrogen to increase viral stability. Viral stock titers were quantified by tissue culture infectious dose 50% o (TCID50) using 8,000 cells per well and 5-fold viral dilutions across a 96-well plate, cultured for 4 days. Viral stock titers were also quantified by a plaque forming unit assay, as described elsewhere.
The assay is run as follows: A549 cells (originally derived through explant culture from a person's carcinomatous lung tissue) are seeded into the inner 60 wells of a 96-well plate at 3,000 cells per well in a volume of 50 μL using A549 growth media (F-12K Media, 1% Penn/Strep, 1% nonessential amino acids, 10% heat-inactivated FBS). 2-fold serial dilutions of control and test compounds are added to the wells in duplicate in a total volume of 25 μL. Viral stock is then added to the wells at a multiplicity of infection (MOI) of 0.5 in a volume of 25 μL, bringing the total volume of each well to 100 μL. The MOI is calculated using the PFU/mL, or TCID50 if unavailable. Each 96-well plate has a control column of 6 wells with cells and virus but no compound (negative control, max CPE), a column with cells but no compound or virus (positive control, minimum CPE), and a column with no cells or virus or compound (background plate/reagent control). The control wells with cells but no virus are given an additional 25 uL of growth media containing an equal quantity of sucrose as those wells receiving the viral stock in order to keep consistent in media and volume conditions. The outer wells of the plate are filled with 125 μL of moat media (DMEM, 1% Penn/Strep) to act as a thermal and evaporative moat around the test wells. 6 days post infection, the plates are read using qPCR or ATP lite (50 uL added per well), which quantifies the amount of ATP (a measure of cell health) present in each well. Assay plates treated with APTlite are read using the Envision luminometer. […] EC50 ranges are as follows: A<0.4 μM; B 0.4-0.8 μM; C>0.8 μM.

SMILES	EC50 [1] [nM]	CC50 at 5 days [2] [nM]	EC50 [3] [nM]
O=C1Nc2ccccc2C(c2ccccc2)=N[C@@H]1Nc1nnc(-c2ccc(F)cc2)o1 [Example 7a]	400 to 800	> 50000	> 800
Cc1nc(-c2nnc(N[C@H]3N=C(c4ccccc4)c4ccccc4NC3=O)o2)c(N2CCOCC2)s1 [Example 272]	< 400		< 400
N#Cc1cnc(-c2nnc(N[C@H]3N=C(c4ccccc4)c4ccccc4NC3=O)o2)c(N2CC3CCC(C2)O3)c1 [Example 304]	< 400		< 400
C[C@H]1CN(c2cc(C(F)(F)F)cnc2-c2nnc(N[C@H]3N=C(c4ccccc4)c4ccccc4NC3=O)o2)CCO1 [Example 278]	< 400		< 400
O=C1Nc2ccccc2C(c2ccccc2)=N[C@@H]1Nc1nnc(-c2ncc(Br)cc2N2CCOCC2)o1 [Example 168]	< 400		< 400
O=C1Nc2ccccc2C(c2ccccc2)=N[C@@H]1Nc1nnc(-c2ncc(C(F)(F)F)cc2N2C3CCC2COC3)o1 [Example 250]	< 400		< 400
O=C1Nc2ccccc2C(c2ccccc2)=NC1Nc1nnc(-c2ccc(C(F)(F)F)cc2N2CCOCC2)o1 (centres unmarked) [Example 123]	< 400		400 to 800
O=C1Nc2ccccc2C(c2ccccc2)=N[C@@H]1Nc1nnc(-c2csc(N3CCOCC3)n2)o1 [Example 351]	400 to 800		400 to 800
C[C@@H]1CN(c2cc(C(F)(F)F)cnc2-c2nnc(N[C@H]3N=C(c4ccccc4)c4ccccc4NC3=O)o2)CCO1 [Example 277]	< 400		< 400
COC1CCN(c2cc(C(F)(F)F)cnc2-c2nnc(N[C@H]3N=C(c4ccccc4)c4ccccc4NC3=O)o2)CC1 [Example 268]	> 800		400 to 800
O=C1Nc2ccccc2C(c2ccccc2)=N[C@@H]1Nc1nnc(-c2ncc(C(F)(F)F)cc2N2CCC(F)CC2)o1 [Example 269]	> 800		400 to 800
N#CCCNc1cc(C(F)(F)F)cnc1-c1nnc(N[C@H]2N=C(c3ccccc3)c3ccccc3NC2=O)o1 [Example 303]	< 400		< 400
O=C1Nc2ccccc2C(c2ccccc2)=N[C@@H]1Nc1nnc(-c2nc(-c3ccccn3)sc2N2CCOCC2)o1 [Example 341]	< 400		< 400
O=C1Nc2ccccc2C(c2ccccc2)=NC1Nc1nnc(-c2ccc(F)cc2N2CCOCC2)o1 (centres unmarked) [Example 127]	< 400		< 400
COCCOc1cc(C#N)ccc1-c1nnc(N[C@H]2N=C(c3ccccc3)c3ccccc3NC2=O)o1 [Example 300]	< 400		< 400
O=C1Nc2ccccc2C(c2ccccc2)=NC1Nc1nnc(-c2ccc(-n3cccn3)cc2N2CCOCC2)o1 (centres unmarked) [Example 129]	< 400		< 400
N#Cc1cc(-c2nnc(N[C@H]3N=C(c4ccccc4)c4ccccc4NC3=O)o2)c(N2CCOCC2)nc1C1CC1 [Example 175]	< 400		400 to 800
C[C@@H]1COCCN1c1ncccc1-c1nnc(NC2N=C(c3ccccc3)c3ccccc3NC2=O)o1 (some centres unmarked) [Example 245]	< 400		400 to 800
O=C1Nc2ccccc2C(c2ccccc2)=N[C@@H]1Nc1nnc(-c2nc(-c3cccnc3)sc2N2CCOCC2)o1 [Example 388]	< 400		< 400
N#Cc1ccc(-c2ccc(NC3N=C(c4ccccc4)c4ccccc4NC3=O)nn2)cc1 (centres unmarked) [Example 377]	< 400		< 400
O=C1Nc2ccccc2C(c2ccccc2)=N[C@@H]1Nc1nnc(-c2nc(C3CC3)sc2N2CCOCC2)o1 [Example 338]	< 400		< 400
O=C1Nc2ccccc2C(c2ccccc2)=N[C@@H]1Nc1nnc(-c2nc(C(F)(F)F)sc2N2CCOCC2)o1 [Example 339]	< 400		< 400
O=C1Nc2ccccc2C(c2ccccc2)=N[C@@H]1Nc1nnc(-c2nc3ccccc3cc2N2CCOCC2)o1 [Example 322]	< 400		< 400
O=C1Nc2ccccc2C(c2ccccc2)=NC1Nc1ccc(-c2ccccc2)nn1 (centres unmarked) [Example 95]	400 to 800		> 800
Cn1c(N2CCOCC2)c(-c2nnc(N[C@H]3N=C(c4ccccc4)c4ccccc4NC3=O)o2)ccc1=O [Example 155]	< 400		< 400
CCc1nc(-c2nnc(N[C@H]3N=C(c4ccccc4)c4ccccc4NC3=O)o2)c(N2CCOCC2)s1 [Example 385]	< 400		< 400
CC(F)(F)c1nc(-c2nnc(N[C@H]3N=C(c4ccccc4)c4ccccc4NC3=O)o2)c(N2CCOCC2)s1 [Example 407]	< 400		< 400
O=C1Nc2ccccc2C(c2ccccc2)=N[C@@H]1Nc1nnc(-c2ncc(C(F)(F)F)cc2N2CC3CCC(C2)O3)o1 [Example 251]	< 400		< 400
N#Cc1ccc(-c2nnc(N[C@H]3N=C(c4ccccc4)c4ccccc4NC3=O)o2)c(N2CCOCC2)n1 [Example 153]	< 400		< 400
